Consider four compounds from patent US20140296164A1, “Compositions and methods of use for cell targeted inhibitors of the Cystic Fibrosis transmembrane regulator associated ligand” (CALISTA THERAPEUTICS, INC., priority 2013, published 2014).

Series [1] has as its system deltaF508-CFTR. Briefly: CFTR agonist evoked short circuit (ISC) current, Ussing epithelial voltage clamp. Type of series: cell-based, human. The settings on record: for summed ISC currents compared with Vehicle treatment: apical, one day at 27° C., CFFT006F cells, Dunnett's test. The text has this: To test for bioeffectiveness, for our exemplary invention to stabilize CFTR, we measured the chloride transport function homozygous deltaF508-CFTR cystic fibrosis human bronchial epithelial cells grown and differentiated on Snapwell™ filter inserts as CFTR agonist evoked short circuit (ISC) current. The ISC was the output of an Ussing epithelial voltage clamp apparatus after amiloride block of sodium current through the epithelial sodium channel (ENaC). ENaC current was monitored as the amiloride sensitive current component of the ISC. The objective of this study was to measure the ability of various compounds, including but limited to CT002, CT008, CT003, CT004, CT005, CT006, CT007, and AT0011 (peptide control), to restore function to defective deltaF508-CFTR in CFhBE cell monolayers (epithelia) after a one day incubation period on the apical surface of the epithelia. See FIG. 4 for sequences and ID numbers.
CT003, CT004, CT005, CT006, CT007, and AT0011 were combined with the known corrector VX-809. CT002 (WQVTRV) was incubated with 10 μL of the cell permeability enhancing reagent BioPORTER™. Statistical comparisons were made using Dunnett's test and Student's t-test with significance evaluated at P<0.05. The ISC current polarity convention used here records apical to basolateral sodium current and basolateral to apical chloride current as negative.
Referring now to the drawings, a first exemplary embodiment is illustrated and generally indicated in FIGS. 1, 2 and 3, which is the measurement of the chloride transport function of homozygous deltaF508-CFTR cystic fibrosis human bronchial epithelial cells grown and differentiated on Snapwell™ filter inserts as CFTR agonist evoked short circuit (ISC) current. The ISC was the output of an Ussing epithelial voltage clamp apparatus after amiloride block of sodium current through the epithelial sodium channel (ENaC). ENaC current was monitored as the amiloride sensitive current component of the ISC. The objective of this study was to measure the ability of candidate Test Articles and controls (CT002 (WQVTRV+BIOPORTER), CT008 (WQVTRV alone), CT003, CT004, CT005, CT006, CT007, and AT0011 control) to restore function to defective deltaF508-CFTR in CFhBE cell monolayers (epithelia) after a one day incubation period on the apical surface of the epithelia. These peptide compounds differed in their amino acid sequence to optimize solubility, intracellular permeability, stability and toxicity (CT003-CT007 shown here). The control peptides were non-optimized sequences (CT002 and CT008) and an off-target peptide control (AT0011).
CT003, CT004, CT005, CT006, CT007, and AT0011 were combined with the known corrector VX-809 and CT002 was incubated with 10 μL of the cell permeability enhancing reagent BioPORTER™. Statistical comparisons were made using Dunnett's test and Student's t-test with significance evaluated at P<0.05. The ISC current polarity convention used records apical to basolateral sodium current and basolateral to apical chloride current as negative.
All incubations were performed at 27±0.5° C. Test Articles were applied at their final concentrations to the apical surface of the cellular monolayers in 200 μL of Opti-MEM Reduced Serum Medium without addition of serum. […] Test Article incubations were approximately 24 hours. 150 μL of cycloheximide (20 μg/mL) was applied to the apical surface of the epithelia for the final 2 hours of peptide treatment, total volume 350 μL. Cycloheximide prevented new protein synthesis that might be otherwise conflated with test article efficacy. This incubation protocol mimics the dilution and clearance effect that will be encountered by topical delivery to the lungs. Test articles are applied at t=0 h, 10 μM in 200 μL, to the apical surface. 2000 μL of basolateral medium provides an immediate dilution effect (test article: 0.91 μM), then at t=22 h, a further […] of cycloheximide containing solution is further added, (test article: 0.85 μM). […]

Series [2] relates to deltaF508-CFTR. The note with it: cited from earlier work.
In series [3] the test system is epithelial sodium channel (ENaC). The experiment in a line: Amiloride sensitive sodium current component of the ISC, Ussing assay. The note with it: Test Article 10 uM + VX-809 1 uM, Student's test. It counts as cell-based, human. The source says: To test for bioeffectiveness, for our exemplary invention to stabilize CFTR, we measured the chloride transport function homozygous deltaF508-CFTR cystic fibrosis human bronchial epithelial cells grown and differentiated on Snapwell™ filter inserts as CFTR agonist evoked short circuit (ISC) current. The ISC was the output of an Ussing epithelial voltage clamp apparatus after amiloride block of sodium current through the epithelial sodium channel (ENaC). ENaC current was monitored as the amiloride sensitive current component of the ISC. […]
Referring now to the drawings, a first exemplary embodiment is illustrated and generally indicated in FIGS. 1, 2 and 3, which is the measurement of the chloride transport function of homozygous deltaF508-CFTR cystic fibrosis human bronchial epithelial cells grown and differentiated on Snapwell™ filter inserts as CFTR agonist evoked short circuit (ISC) current. […] ENaC current was monitored as the amiloride sensitive current component of the ISC. […]
Ussing Assay: All Ussing assays were performed at 27±0.5° C. and lasted for approximately 1 hour 40 minutes. The temperature was monitored throughout the experiment using a thermistor probe connected to the data acquisition system and inserted into the bath solution of one chamber. […]

The nature of series [4]: Solubility of peptide sequences. It counts as physicochemical.
The mark [5] stands for this setting: Test Article 10 uM + VX-809 1 uM, Student's t-test.

Entries after “also recorded” stand apart in the source; their conditions may differ. No end group written: not given here.

As for `Cc1ccc(NC(=O)C2(c3ccc4c(c3)OC(F)(F)O4)CC2)nc1-c1cccc(C(=O)O)c1` [VX-809, reference compound], the “summed ISC currents compared with Vehicle treatment” value with deltaF508-CFTR [1] (VX-809 1 μM alone) was “significantly above Vehicle treatment”. Moreover, the “summed ISC currents compared with expected level” value in the series with deltaF508-CFTR [1] (VX-809 1 μM, apical incubation only, not in basolateral media) is listed as “less than the expected level”.
In the case of ANSRWPTSII, in the series with deltaF508-CFTR [2], the “function without BIOPORTER” value is “neither sequence functions”.
Take “Acety-YGRKKRRQRRR-glycoyl-WQVTRV-amide (Ac-YGRKKRRQRRR; not fully specified (C-terminus)) [CT007]”: in series [3], the “amiloride sensitive sodium current generated by ENaC compared to VX-809 alone” value was “significantly increased”. Besides, the “lower concentration needed versus prior sequences with BIOPORTER” value with deltaF508-CFTR [1] (10 μM CT007 vs 500 μM WQVTRV) is over 50 times. In addition, in the series with deltaF508-CFTR [1] (10 uM vs 500 μM, at least), the “improvement in reported efficacy versus WQVTRV and ANSRWPTSII with BIOPORTER” value is recorded as “fifty-fold”. The “additive efficacy to VX-809” value in the series with deltaF508-CFTR [1] (CT007 10 uM + VX-809 1 uM, CF bronchial epithelium, n=4) was 36%. Besides, in the series with deltaF508-CFTR [1] (setting [5]), the “response to CFTRinh-172 compared with VX-809 1 uM” value is recorded as “significantly increased” and the “summed ISC currents (CFTR chloride current restoration) compared with VX-809 1 μM treatment” value was “significantly greater; also recorded: significantly above VX-809 1 μM treatment”. Further, the “summed ISC currents compared with Vehicle treatment” value in the series with deltaF508-CFTR [1] (Test Article 10 uM + VX-809 1 uM) is “significantly above Vehicle treatment”. In the series on deltaF508-CFTR [1] (after transient topical apical dosing, test article removed before Ussing assay), the “duration of therapeutic drug action” value is “at least 26 hours”.
Take WQVTRV [CT008, WQVTRV]: the “solubility at the effective concentration” value in series [4] (500 μM) is “largely insoluble”. In addition, in series [4] (water / aqueous fluids), the solubility in water result was “insoluble in water”.
